# Assay results taken from patent US20250345330A1 (Veradermics, Incorporated, priority 2024, published 2025).
# Like-named read-outs stand apart in the source and are kept apart here.
# Tests used:
# [1] = system: rats; conditions: cited from earlier work
# [2] = primarily conjugation with glucuronic acid; cited from earlier work
# [3] = cited from earlier work; for Cmax: tablets, healthy subjects
# [4] = system: male adults with AGA; conditions: 5 mg oral at bedtime; 24 weeks; cited from earlier work
# [5] = system: person with androgenetic alopecia; experiment: Case studies: oral minoxidil in male patients with androgenetic alopecia (blood pressure, heart rate, hair growth); conditions: 1.25 mg QID
# [6] = system: rats; conditions: two-year, oral administration; cited from earlier work
# [7] = cited from earlier work
# [8] = initially; chronic therapy; cited from earlier work
# [9] = system: Chinese hamster cells; conditions: long exposure times; cited from earlier work
compound,measurement,setting,value
"Nc1cc(N2CCCCC2)nc(N)[n+]1[O-] [Minoxidil, minoxidil]",Fetal resorption,[1],not seen in rats
same,Fraction of oral minoxidil metabolized,[2],About 90%
same,Dose dependence of PK,"[3]; 2.5 mg, 5 mg, or 10 mg oral, healthy volunteers",dose-independent PK
same,Duration of plasma concentrations above 20 ng/mL,[3]; 5 mg dose level,around 1 h
same,Duration of plasma concentrations above 20 ng/mL,[3]; 10 mg dose level,around 2 h
same,Cmax,[3]; 2.5 mg,16.8 ng/mL
same,Cmax,[3]; 5 mg,37.2 ng/mL
same,Cmax,[3]; 10 mg,74.7 ng/mL
same,Cardiovascular outcomes,[4],No adverse cardiovascular outcomes were observed
same,Adverse events,[5],No unwanted hair growth or other adverse events
same,Carcinogenicity findings,[6],no positive findings
same,Radioactivity found in feces,"[7]; human, in vivo",3%
same,"Radioactivity recovered from urine, in total","[7]; human, in vivo",97%
same,Radiolabeled minoxidil and metabolites recovered from urine,[7]; within 24 h after oral administration,Over 80%
same,"Temporary decrease in hematocrit, hemoglobin, and erythrocyte count (hemodilution)",[8],approximately 7%
same,Cytogenetic assay result,[9],equivocal result
